Structures are written as SMILES. Active and inactive are the calls of the source.

The target in assay [1] is Tyrosine-protein kinase HCK (Homo sapiens, UniProt P08631).
For assay [2], the target named is Cyclin-dependent kinase 7 (Homo sapiens, UniProt P50613).
Assay [3] concerns the target T1, DNA replication licensing factor MCM4 (Homo sapiens, UniProt P33991).
T1 sequence (P33991 whole entry): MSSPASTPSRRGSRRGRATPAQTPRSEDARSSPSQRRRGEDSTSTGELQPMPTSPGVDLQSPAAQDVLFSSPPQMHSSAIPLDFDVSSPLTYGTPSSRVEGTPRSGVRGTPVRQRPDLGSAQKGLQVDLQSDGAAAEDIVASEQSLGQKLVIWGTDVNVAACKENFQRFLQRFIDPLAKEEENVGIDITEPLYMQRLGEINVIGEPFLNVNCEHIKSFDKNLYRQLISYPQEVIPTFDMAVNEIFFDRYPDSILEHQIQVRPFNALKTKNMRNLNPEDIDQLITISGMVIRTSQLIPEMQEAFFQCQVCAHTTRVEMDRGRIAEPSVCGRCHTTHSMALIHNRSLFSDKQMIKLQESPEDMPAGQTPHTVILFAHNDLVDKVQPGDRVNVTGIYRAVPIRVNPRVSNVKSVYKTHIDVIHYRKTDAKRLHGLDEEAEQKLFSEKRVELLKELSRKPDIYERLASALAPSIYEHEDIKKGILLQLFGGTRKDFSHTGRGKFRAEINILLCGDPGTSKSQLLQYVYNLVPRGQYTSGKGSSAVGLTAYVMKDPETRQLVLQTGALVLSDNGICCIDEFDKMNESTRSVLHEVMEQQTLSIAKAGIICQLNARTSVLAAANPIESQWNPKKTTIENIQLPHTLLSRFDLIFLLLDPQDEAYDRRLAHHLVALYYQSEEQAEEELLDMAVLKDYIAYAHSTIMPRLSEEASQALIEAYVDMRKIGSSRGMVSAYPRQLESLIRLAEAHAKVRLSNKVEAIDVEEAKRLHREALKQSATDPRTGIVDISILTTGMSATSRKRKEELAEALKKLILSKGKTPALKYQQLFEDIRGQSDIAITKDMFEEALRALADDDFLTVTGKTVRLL

The target in assay [4] is T2, Inhibitor of nuclear factor kappa-B kinase subunit epsilon (Homo sapiens, UniProt Q14164).
T2 sequence (Q14164 whole entry): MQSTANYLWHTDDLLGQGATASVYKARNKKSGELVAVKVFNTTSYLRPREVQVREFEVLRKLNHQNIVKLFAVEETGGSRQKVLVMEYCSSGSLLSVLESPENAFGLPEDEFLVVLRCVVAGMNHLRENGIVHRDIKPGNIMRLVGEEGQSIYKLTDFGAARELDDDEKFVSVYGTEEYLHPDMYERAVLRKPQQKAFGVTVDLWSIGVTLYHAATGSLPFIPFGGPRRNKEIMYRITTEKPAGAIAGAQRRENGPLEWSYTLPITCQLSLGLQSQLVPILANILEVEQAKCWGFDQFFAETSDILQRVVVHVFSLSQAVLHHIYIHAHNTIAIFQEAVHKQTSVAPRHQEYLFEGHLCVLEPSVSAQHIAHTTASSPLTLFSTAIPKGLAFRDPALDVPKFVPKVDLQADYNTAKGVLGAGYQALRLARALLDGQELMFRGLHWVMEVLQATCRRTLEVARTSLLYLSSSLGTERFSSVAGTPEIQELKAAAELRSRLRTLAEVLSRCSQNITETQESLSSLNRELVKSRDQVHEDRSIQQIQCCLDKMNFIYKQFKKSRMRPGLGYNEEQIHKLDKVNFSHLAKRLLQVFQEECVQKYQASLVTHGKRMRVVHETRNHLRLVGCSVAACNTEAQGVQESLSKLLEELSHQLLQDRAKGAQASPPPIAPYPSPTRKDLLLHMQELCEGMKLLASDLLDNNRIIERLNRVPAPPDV

For assay [5], the target named is Protein kinase C beta type (Homo sapiens, UniProt P05771).
The target in assay [6] is T3, Serine/threonine-protein kinase TAO1 (Homo sapiens, UniProt Q7L7X3).
T3 sequence (Q7L7X3 whole entry): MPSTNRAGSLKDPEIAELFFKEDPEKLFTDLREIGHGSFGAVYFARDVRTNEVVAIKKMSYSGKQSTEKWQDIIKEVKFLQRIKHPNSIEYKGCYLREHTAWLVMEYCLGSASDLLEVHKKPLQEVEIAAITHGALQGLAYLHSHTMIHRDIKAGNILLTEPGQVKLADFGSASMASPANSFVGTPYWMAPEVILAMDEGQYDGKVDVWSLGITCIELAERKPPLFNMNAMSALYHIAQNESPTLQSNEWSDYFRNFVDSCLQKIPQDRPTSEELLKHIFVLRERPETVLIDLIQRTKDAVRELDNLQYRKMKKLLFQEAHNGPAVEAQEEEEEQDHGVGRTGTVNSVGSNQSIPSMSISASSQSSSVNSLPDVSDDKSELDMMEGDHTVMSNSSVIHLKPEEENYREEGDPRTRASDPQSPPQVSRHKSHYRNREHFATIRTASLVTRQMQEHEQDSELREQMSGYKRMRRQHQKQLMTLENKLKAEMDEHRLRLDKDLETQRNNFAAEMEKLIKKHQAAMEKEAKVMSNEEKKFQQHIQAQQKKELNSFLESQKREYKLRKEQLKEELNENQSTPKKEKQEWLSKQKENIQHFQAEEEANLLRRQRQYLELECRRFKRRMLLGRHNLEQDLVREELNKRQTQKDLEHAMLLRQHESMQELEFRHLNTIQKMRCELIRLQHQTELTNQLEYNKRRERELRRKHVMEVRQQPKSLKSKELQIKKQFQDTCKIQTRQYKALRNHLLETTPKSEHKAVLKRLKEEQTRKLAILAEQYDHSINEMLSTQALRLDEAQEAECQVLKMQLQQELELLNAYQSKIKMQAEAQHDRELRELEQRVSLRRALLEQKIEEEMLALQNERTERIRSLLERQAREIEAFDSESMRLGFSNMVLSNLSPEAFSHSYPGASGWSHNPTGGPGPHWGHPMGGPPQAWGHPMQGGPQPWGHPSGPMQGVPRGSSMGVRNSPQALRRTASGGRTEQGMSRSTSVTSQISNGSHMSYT

Another assay deals with Adenosine kinase (Homo sapiens, UniProt P55263).
Assay [7] addresses cAMP-dependent protein kinase catalytic subunit alpha (Homo sapiens, UniProt P17612).
For assay [8], the target named is Mitogen-activated protein kinase 3 (Homo sapiens, UniProt P27361).
A further assay deals with GTP-binding protein 4 (Homo sapiens, UniProt Q9BZE4).
Also: in the data inactive means no Kd found up to 30 µM.

Sequence of Adenosine kinase (P55263 whole entry): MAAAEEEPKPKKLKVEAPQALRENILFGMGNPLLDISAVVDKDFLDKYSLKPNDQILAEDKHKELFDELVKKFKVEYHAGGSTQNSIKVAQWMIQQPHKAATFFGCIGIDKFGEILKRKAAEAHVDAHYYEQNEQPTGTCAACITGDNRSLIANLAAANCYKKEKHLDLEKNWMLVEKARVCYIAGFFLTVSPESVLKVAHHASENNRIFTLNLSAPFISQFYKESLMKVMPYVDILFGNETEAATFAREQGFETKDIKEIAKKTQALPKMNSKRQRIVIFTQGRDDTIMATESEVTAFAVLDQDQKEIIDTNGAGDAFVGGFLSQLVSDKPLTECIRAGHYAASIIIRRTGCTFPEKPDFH
Sequence of Cyclin-dependent kinase 7 (P50613 whole entry): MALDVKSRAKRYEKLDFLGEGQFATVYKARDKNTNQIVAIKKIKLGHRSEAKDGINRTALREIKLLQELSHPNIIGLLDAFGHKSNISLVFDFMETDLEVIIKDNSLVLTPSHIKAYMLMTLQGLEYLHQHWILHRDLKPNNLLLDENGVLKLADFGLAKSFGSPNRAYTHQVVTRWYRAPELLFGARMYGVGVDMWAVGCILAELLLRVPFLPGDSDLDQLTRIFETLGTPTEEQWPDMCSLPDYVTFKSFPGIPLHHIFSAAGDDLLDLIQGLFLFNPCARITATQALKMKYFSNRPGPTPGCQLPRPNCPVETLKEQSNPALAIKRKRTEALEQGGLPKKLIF
Sequence of Protein kinase C beta type (P05771 whole entry): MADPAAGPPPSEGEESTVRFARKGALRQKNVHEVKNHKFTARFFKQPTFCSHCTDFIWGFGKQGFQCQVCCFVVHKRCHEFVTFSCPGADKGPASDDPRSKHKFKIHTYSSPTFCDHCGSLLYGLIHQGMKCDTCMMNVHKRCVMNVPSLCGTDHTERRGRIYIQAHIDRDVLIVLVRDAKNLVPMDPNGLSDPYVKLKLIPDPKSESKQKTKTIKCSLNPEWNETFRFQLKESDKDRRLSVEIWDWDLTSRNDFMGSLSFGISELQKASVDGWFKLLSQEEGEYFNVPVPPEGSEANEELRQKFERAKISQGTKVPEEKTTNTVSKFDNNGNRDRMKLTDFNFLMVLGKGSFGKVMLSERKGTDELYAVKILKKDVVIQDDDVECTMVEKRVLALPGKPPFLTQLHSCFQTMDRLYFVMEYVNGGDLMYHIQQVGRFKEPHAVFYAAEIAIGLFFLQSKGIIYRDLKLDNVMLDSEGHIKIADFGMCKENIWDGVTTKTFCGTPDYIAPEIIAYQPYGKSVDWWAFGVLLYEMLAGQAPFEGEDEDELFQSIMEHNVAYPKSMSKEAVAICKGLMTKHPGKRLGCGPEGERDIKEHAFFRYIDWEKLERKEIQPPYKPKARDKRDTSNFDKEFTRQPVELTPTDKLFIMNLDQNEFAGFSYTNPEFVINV
Sequence of Mitogen-activated protein kinase 3 (P27361 whole entry): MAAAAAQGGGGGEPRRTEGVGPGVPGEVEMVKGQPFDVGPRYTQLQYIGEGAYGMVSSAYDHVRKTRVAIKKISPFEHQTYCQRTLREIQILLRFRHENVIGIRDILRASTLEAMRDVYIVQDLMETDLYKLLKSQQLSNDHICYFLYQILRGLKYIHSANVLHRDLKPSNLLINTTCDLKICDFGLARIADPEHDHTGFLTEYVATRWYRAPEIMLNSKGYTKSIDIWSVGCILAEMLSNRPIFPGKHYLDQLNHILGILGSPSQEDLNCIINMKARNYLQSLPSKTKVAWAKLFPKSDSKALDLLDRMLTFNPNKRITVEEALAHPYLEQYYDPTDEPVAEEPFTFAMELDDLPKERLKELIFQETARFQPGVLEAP
Sequence of Tyrosine-protein kinase HCK (P08631 whole entry): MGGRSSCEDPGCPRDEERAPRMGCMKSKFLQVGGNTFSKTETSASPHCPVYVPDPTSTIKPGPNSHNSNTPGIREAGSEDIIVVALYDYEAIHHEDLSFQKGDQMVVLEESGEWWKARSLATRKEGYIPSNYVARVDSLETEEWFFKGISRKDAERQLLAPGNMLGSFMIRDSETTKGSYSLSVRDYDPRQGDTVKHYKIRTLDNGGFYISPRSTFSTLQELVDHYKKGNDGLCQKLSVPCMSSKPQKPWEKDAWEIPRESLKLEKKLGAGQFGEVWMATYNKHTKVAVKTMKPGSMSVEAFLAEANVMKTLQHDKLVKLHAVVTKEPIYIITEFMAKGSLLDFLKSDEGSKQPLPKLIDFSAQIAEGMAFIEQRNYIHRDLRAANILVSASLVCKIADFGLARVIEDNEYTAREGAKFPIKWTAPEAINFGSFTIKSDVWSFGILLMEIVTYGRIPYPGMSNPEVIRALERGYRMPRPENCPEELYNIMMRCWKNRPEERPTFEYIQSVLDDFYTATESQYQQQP

One may read the Kd as the equilibrium constant for the complex coming apart. Turning to `CCNC(=O)C#Cc1ccc2c(c1)NC(=O)/C2=C(\Nc1ccc(CN(C)C)cc1)c1ccccc1`, the Kd was 0.9 µM (active) in assay [1]; > 30 µM (inactive) in [2]; > 30 µM (inactive) in assay [3]; 0.408 µM (active) in [4]; > 30 µM (inactive) in assay [5]; > 30 µM (inactive) in assay [6]. Moreover, the Kd (on Adenosine kinase; in [7]; in [8]) was > 30 µM (inactive) in each case.
For the compound `COc1cc(Nc2ncc3c(n2)-c2ccc(Cl)cc2C(c2c(F)cccc2OC)=NC3)ccc1C(=O)O` [ALISERTIB], the dissociation constant (Kd) in assay [3] is 0.629 µM; in assay [5], > 30 µM (inactive); on GTP-binding protein 4 it was > 30 µM (inactive); at Adenosine kinase, > 30 µM (inactive); in assay [7], > 30 µM (inactive); in [8] it was > 30 µM (inactive).
With `Cc1nc(NC(=O)N2CCC[C@H]2C(N)=O)sc1-c1ccnc(C(C)(C)C(F)(F)F)c1` [ALPELISIB], the Kd (in assay [1]; in [2]; in assay [3]; in assay [4]; in assay [5]; at GTP-binding protein 4) was > 30 µM (inactive) each time. Also, the Kd (in assay [6]; at Adenosine kinase; in assay [7]; in [8]) was > 30 µM (inactive) in each case.
Take `CNC(=O)c1ccccc1Sc1ccc2c(/C=C/c3ccccn3)n[nH]c2c1` [AXITINIB]: the Kd (in [3]; in [5]; on GTP-binding protein 4; on Adenosine kinase) was > 30 µM (inactive) each time.
On to `NC(=O)Nc1cc(-c2cccc(F)c2)sc1C(=O)N[C@H]1CCCNC1` [AZD-7762], for which the Kd in assay [1] is 0.103 µM (active); in assay [2], > 30 µM (inactive); in assay [3], > 30 µM (inactive); in assay [4] it was > 30 µM (inactive); in assay [5], > 30 µM (inactive); on GTP-binding protein 4 it was > 30 µM (inactive). Also, the Kd (in assay [6]; on Adenosine kinase; in assay [7]; in assay [8]) was > 30 µM (inactive) each time.
With `CCn1c(C(=O)N(C2CC2)C2CC2)cc2c3c(ncn3C)c(Nc3cc(C)n(C)n3)nc21` [BMS-911543], the Kd (in assay [1]; in assay [2]; in assay [3]; in [4]; in [5]; at GTP-binding protein 4) was > 30 µM (inactive) in each case. For the same compound, the Kd (in assay [6]; at Adenosine kinase; in [7]; in assay [8]) was > 30 µM (inactive) each time.
Take `CC(C)(C)c1nc(-c2cccc(NS(=O)(=O)c3c(F)cccc3F)c2F)c(-c2ccnc(N)n2)s1` [DABRAFENIB]: the equilibrium dissociation constant (Kd) in assay [1] was 1.65 µM; in [3], > 30 µM (inactive); in assay [4], > 30 µM (inactive); in [5], > 30 µM (inactive); at GTP-binding protein 4, > 30 µM (inactive); at Adenosine kinase, > 30 µM (inactive). The Kd in [8] is > 30 µM (inactive).
For `Cn1cc(C2=C(c3cn(C4CCN(Cc5ccccn5)CC4)c4ccccc34)C(=O)NC2=O)c2ccccc21` [ENZASTAURIN], the Kd (in assay [3]; on GTP-binding protein 4; on Adenosine kinase) was > 30 µM (inactive) each time.
Consider `C[C@@H](Oc1cc(-n2cnc3ccc(CN4CCN(C)CC4)cc32)sc1C(N)=O)c1ccccc1C(F)(F)F` [GSK-461364], for which the Kd in assay [3] is > 30 µM (inactive); in [5], > 30 µM (inactive); on GTP-binding protein 4 it was > 30 µM (inactive); on Adenosine kinase, 2.51 µM (active).
Regarding `Cc1[nH]c(/C=C2\C(=O)Nc3ccccc32)c(C)c1CCC(=O)O` [ORANTINIB], the Kd (in assay [3]; in assay [5]; on GTP-binding protein 4; on Adenosine kinase; in assay [8]) was > 30 µM (inactive) throughout.
Consider `NC(=O)c1c(OCc2c(F)cc(Br)cc2F)nsc1NC(=O)NCCCCN1CCCC1` [OSI-632], for which the Kd (in assay [1]; in assay [3]; in assay [5]; at GTP-binding protein 4; on Adenosine kinase; in [8]) was > 30 µM (inactive) throughout.
Take `CC(=O)NCC(=O)N1[C@@H]2CC[C@H]1c1ccc(Nc3ncc(C(F)(F)F)c(NC4CCC4)n3)cc12` [PF-03814735]: the Kd (in assay [1]; in assay [3]; in assay [5]; at Adenosine kinase; in assay [8]) was > 30 µM (inactive) in each case.
`CNC(=O)c1cc(Oc2ccc(NC(=O)Nc3cc(C(C)(C)C)nn3-c3ccc4ncccc4c3)c(F)c2)ccn1` [REBASTINIB]: the Kd (in [2]; in [4]; in assay [5]; on GTP-binding protein 4; in assay [6]; at Adenosine kinase) was > 30 µM (inactive) in each case. Further, the Kd in assay [7] and in assay [8] was > 30 µM (inactive) each time.
As to `O=C(NOCCO)c1cc(CN2OCCCC2=O)c(F)c(F)c1Nc1ccc(I)cc1F` [RO-4987655], the Kd (in assay [3]; in assay [5]; on GTP-binding protein 4) was > 30 µM (inactive) in each case.
Consider `N#CC[C@H](C1CCCC1)n1cc(-c2ncnc3[nH]ccc23)cn1` [RUXOLITINIB], for which the Kd (in assay [3]; in assay [5]; at GTP-binding protein 4; at Adenosine kinase) was > 30 µM (inactive) in each case.

The record behind these values is ChEMBL document CHEMBL3991601, “The target landscape of clinical kinase drugs” (Science, 2017).
